In ChEMBL document CHEMBL5465560, “Selectivity Literature for EUbOPEN Chemogenomic Library” (2024):

Tests used:
[1] = molecular target: T1, MAP kinase-activated protein kinase 5 (Homo sapiens) (UniProt Q8IW41); assay: Selectivity interaction (Kinase panel (Invitrogen)) EUB0000639a MAPKAPK5; details: at 200 nM
T1 sequence (whole entry): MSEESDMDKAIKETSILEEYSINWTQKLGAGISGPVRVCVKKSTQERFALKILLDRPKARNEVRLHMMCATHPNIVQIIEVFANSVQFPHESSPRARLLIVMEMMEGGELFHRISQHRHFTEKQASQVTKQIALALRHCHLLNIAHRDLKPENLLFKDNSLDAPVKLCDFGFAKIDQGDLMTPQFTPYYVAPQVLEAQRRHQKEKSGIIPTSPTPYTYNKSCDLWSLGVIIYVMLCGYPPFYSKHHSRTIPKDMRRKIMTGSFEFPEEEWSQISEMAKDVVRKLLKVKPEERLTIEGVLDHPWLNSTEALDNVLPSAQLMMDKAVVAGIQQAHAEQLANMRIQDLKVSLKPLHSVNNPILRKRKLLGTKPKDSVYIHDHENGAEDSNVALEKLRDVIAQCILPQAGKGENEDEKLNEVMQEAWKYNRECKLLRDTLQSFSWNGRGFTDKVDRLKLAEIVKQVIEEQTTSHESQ

[2] = molecular target: Receptor-type tyrosine-protein kinase FLT3 (Homo sapiens) (UniProt P36888); details: at 10 µM
[3] = molecular target: T2, Ephrin type-A receptor 1 (Homo sapiens) (UniProt P21709); assay: Selectivity interaction (KinomeScan (DiscoverX)) EUB0000595a EPHA1; details: at 10 µM
T2 sequence (whole entry): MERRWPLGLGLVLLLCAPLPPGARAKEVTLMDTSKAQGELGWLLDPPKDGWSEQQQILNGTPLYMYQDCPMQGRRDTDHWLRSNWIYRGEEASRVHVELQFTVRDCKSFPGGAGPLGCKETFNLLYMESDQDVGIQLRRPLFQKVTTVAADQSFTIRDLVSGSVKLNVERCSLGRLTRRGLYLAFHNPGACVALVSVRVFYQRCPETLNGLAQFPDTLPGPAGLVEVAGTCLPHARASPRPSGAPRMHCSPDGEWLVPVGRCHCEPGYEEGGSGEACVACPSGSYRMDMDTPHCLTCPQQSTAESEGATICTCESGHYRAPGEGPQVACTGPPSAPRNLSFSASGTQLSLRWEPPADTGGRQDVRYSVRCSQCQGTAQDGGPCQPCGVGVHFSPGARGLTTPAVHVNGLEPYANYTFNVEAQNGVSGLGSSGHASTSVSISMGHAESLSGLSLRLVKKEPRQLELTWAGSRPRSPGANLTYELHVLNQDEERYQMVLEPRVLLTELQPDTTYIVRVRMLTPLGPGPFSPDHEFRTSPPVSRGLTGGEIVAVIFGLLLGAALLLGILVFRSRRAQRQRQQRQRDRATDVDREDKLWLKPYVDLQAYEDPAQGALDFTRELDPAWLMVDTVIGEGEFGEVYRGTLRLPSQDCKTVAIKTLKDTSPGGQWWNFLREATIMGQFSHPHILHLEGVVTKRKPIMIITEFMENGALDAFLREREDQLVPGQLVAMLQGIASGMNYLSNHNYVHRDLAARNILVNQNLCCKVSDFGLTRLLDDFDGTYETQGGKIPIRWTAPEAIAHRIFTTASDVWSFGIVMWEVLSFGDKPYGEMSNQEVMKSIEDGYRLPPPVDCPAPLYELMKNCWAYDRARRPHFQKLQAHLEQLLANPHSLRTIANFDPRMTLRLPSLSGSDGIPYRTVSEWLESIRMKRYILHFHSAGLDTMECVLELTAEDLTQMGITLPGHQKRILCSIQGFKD

[4] = molecular target: T3, Calcium/calmodulin-dependent protein kinase type IV (Homo sapiens) (UniProt Q16566); assay: Selectivity interaction (KinomeScan (DiscoverX)) EUB0001079a CAMK4; details: at 1 µM
T3 sequence (whole entry): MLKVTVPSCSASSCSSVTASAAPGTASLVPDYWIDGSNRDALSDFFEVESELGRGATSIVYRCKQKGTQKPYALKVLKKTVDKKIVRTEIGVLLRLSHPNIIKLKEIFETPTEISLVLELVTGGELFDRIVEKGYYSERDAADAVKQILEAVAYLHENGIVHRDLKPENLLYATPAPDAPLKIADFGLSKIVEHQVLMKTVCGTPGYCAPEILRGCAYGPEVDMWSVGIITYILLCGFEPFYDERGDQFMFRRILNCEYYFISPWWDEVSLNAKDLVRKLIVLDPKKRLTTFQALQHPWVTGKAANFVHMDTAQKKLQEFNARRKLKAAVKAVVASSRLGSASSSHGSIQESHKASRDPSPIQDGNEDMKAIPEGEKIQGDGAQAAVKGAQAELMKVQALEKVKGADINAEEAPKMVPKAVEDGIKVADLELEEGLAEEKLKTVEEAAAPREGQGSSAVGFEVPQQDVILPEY

[5] = molecular target: Dual specificity tyrosine-phosphorylation-regulated kinase 1A (Homo sapiens, UniProt Q13627); assay: Selectivity interaction (KinomeScan (DiscoverX)) EUB0000045b DYRK1A
[6] = molecular target: T4, Mitogen-activated protein kinase kinase kinase 7 (Homo sapiens) (UniProt O43318); assay: Selectivity interaction (KinomeScan (DiscoverX)) EUB0000655a MAP3K7; details: at 10 µM
T4 sequence (whole entry): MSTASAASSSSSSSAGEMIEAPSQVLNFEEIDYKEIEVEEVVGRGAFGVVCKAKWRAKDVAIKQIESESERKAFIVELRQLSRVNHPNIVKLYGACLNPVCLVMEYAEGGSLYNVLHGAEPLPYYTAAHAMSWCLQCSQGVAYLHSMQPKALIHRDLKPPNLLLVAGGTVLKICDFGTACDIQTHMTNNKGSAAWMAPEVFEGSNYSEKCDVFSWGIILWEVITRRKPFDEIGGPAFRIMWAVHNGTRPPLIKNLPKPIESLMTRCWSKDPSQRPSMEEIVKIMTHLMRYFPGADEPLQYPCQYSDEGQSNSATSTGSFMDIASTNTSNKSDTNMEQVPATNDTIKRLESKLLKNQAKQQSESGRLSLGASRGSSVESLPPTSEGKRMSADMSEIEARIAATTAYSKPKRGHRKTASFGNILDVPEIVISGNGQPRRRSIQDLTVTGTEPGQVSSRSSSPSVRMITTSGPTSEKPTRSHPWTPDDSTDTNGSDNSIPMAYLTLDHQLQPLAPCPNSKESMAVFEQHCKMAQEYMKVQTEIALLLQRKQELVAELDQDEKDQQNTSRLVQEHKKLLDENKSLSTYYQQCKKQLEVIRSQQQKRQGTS

[7] = molecular target: Dual specificity mitogen-activated protein kinase kinase 1 (Homo sapiens, UniProt Q02750); assay: Selectivity interaction (Kinase panel (KiNativ target engagement assay in Jurkat cells)) EUB0001635a MAP2K1; assay type: cell-based; details: Selectivity number of off-targets 0.0, Selectivity number of targets 233.0, Source Knowledge https://www.sciencedirect.com/science/article/pii/S2451945619300674?via%3Dihub, at 1 µM
Sequence of Dual specificity mitogen-activated protein kinase kinase 1 (Q02750 whole entry): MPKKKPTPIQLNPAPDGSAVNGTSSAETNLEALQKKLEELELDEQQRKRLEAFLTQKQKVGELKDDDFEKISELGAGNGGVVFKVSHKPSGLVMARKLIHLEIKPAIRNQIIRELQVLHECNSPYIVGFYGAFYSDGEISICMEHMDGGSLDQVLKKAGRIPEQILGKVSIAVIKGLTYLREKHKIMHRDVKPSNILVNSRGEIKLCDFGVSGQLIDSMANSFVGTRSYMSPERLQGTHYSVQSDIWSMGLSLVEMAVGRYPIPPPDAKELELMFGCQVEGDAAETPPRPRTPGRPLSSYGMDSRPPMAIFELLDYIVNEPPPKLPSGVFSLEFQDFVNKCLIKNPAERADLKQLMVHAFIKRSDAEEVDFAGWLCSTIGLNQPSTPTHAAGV

Sequence of Receptor-type tyrosine-protein kinase FLT3 (Homo sapiens) (P36888 whole entry): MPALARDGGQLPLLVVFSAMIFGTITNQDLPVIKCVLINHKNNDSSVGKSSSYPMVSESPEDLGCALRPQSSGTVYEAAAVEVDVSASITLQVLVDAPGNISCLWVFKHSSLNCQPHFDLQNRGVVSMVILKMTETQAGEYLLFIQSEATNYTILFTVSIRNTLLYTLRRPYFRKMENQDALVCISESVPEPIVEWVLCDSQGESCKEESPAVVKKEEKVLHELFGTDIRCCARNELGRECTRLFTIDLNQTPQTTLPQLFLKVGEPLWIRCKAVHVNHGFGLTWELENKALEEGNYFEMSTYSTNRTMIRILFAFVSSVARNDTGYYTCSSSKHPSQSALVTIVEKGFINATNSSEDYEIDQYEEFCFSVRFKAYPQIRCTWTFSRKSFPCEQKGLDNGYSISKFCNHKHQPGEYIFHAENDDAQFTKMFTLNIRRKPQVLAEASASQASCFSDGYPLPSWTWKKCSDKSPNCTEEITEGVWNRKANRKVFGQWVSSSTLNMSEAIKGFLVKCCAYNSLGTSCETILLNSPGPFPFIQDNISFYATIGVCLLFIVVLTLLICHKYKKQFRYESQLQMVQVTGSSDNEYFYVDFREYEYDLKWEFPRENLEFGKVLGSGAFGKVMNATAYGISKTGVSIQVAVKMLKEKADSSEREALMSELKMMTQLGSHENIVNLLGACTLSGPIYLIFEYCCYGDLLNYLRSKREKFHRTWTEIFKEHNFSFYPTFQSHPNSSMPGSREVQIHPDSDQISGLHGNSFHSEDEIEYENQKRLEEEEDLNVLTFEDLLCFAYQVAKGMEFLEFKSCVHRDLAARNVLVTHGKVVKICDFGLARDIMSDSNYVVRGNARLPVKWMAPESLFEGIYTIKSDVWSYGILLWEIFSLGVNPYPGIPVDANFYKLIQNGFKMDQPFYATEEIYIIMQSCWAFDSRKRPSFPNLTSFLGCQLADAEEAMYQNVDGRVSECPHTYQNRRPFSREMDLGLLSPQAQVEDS

CC[C@@H]1[C@H](F)C(=O)N[C@@H]1COc1nccc2cc(C(N)=O)c(OC)cc12 [ZIMLOVISERTIB]
% of inhibition [1]: 8.71%

CCN(CC)CCCCNc1ncc2cc(-c3cc(OC)cc(OC)c3)c(NC(=O)NC(C)(C)C)nc2n1
% of control [2]: 100%

COCC(=O)NC/C=C/c1ccc2ncnc(Nc3ccc(Oc4ccc(C)nc4)c(C)c3)c2c1 [CP-724714]
% of control [3]: 88%

Nc1cnc(N2CCc3cc(S(=O)(=O)Nc4c(F)cc(Cl)cc4F)cc(N4CCCC4=O)c32)nc1 [TP-020n]
% of control [4]: 96%

C=CC(=O)Nc1cc(-n2c(=O)ccc3cnc4ccc(-c5ccc(NS(C)(=O)=O)cc5)cc4c32)ccc1C
% of control ([5]; at 1 µM): 100% | % of control ([5]; at 10 µM): 62%

CN(C)CCOc1ccc(-c2nc(-c3ccncc3)c(-c3ccc4c(c3)CC/C4=N\O)[nH]2)cc1
% of control [6]: 89%

C=CC(=O)Nc1ccc(C(=O)Nc2[nH]nc3c2CN(C(=O)N[C@H](CN(C)C)c2ccccc2)C3(C)C)cc1
% of engagement [7]: -2.4%
